Source: patent EP0552417B1, “Cyclic peptides and use thereof” (priority 1991, dated 1993)
Non-standard residues stand in square brackets, D forms with d. Residues, ends and D or L forms follow the SMILES beside them. *: point of attachment. NMeW = CN[C@@H](Cc1c[nH]c2ccccc12)C(=O)O; NMeF = CN[C@@H](Cc1ccccc1)C(=O)O; NMeL = CN[C@@H](CC(C)C)C(=O)O; X3 = O=C(Cc1c[nH]c2ccccc12)*; Orn = NCCC[C@H](N)C(=O)O; PhAc = O=C(Cc1ccccc1)*; Bn = c1ccc(C*)cc1; Sar = CNCC(=O)O

Assays:
ETB = ETB radio receptor assay *2, 125I-endothelin-1, guinea pig kidney crude membrane fraction; format: binding, Guinea pigs; conditions: relative activity, 37 °C, 90 minutes
Procedure: ETB Radio Receptor Assay *2
In the endothelin radio receptor assay, guinea pigs' kidneys were used. Guinea pigs (Std Hartrey, male 250 g, Japan SLC Ltd.) were made to have a cerebral concussion and sacrificed by bleeding from carotid arteries to pick up the kidneys and removed fat therefrom to prepare the kidneys. The obtained kidneys were sliced and homogenized by politron homogenizer in 20 ml of 50 mM Tris-HCl buffer [pH 7.4; 20 mM NaHCO3, 0.1 mM PMSF (Phenylmethylsulfonyl Fluoride), 1 mM EDTA (Ethylenediaminetetraacetic acid)] per one kidney. The homogenized kidney was applied to a centrifugation at 1,000 x g for 15 minutes and the supernatant was further applied to a centrifugation for 20 minutes at 30,000 x g. The resulting precipitate was twice washed with 50 mM Tris-HCl buffer (pH 7.4) containing 0.1 mM PMSF, 1 mM EDTA. The resultant was stored at -80 °C as a crude receptor membrane fraction and was used as the suspension in the following buffer when necessary.
740 Bq of ^125I-endothelin-1 (81.4 TBq/mmol, Du Pont, USA) as a radio ligand, the crude membrane fraction (2.1 µg protein) and samples were added to the following buffer. The reaction was performed at 37 °C, for 90 minutes in 0.2 ml of the buffer [50 mM Tris-HCl buffer (pH 7.4) containing 0.1 mM PMSF, 1 mM EDTA, 0.2% bovine serum albumin].
The reaction was stopped by fast filtration on a glass filter (GF/B, Wattman, USA) by Cell Harvestor (290 PHD, Cambridge-Technology, Great Britain), and the filter was three times washed with 50 mM Tris-HCl buffer (pH 7.4). Radio activity remained on the filter was assayed by a gamma counter.

[1] = molecular target: T1, endothelin receptor A (ETA) (Sus scrofa, UniProt Q29010); test: Assay of affinity for receptor (1): binding activity on ETA receptor, 125I-labeled endothelin-1, porcine heart membrane fraction; set-up: key: relative specific activity; reference cyclic pentapeptide ETA binding = 1.0; conditions: specific activity, taking the binding activity of control cyclo[-D-Glu-Ala-D-aIle-Leu-D-Trp-] on receptor A as 1.0, 25°C, 1 hour
T1 construct: A membrane fraction prepared from the porcine heart; from tissue; host or cells: porcine heart membrane fraction
T1 sequence (Q29010 21-427): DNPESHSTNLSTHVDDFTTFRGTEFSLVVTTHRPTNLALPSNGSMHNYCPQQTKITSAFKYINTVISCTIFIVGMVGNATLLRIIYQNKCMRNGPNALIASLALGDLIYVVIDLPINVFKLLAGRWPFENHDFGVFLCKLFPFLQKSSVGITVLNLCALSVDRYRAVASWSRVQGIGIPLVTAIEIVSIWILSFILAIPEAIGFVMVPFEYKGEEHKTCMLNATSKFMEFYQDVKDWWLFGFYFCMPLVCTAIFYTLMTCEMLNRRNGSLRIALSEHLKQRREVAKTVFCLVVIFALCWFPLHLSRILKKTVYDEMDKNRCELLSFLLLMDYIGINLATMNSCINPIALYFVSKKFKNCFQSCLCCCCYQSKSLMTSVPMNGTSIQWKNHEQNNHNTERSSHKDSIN
Procedure: Assay of Affinity for Receptor (1) ... Binding Activity on ETA Receptor
A membrane fraction prepared from the porcine heart was diluted to 0.15 mg/ml by using a buffer solution for assay, and 100 µl of the resulting suspension of the membrane fraction was poured into each assay tube to use for assay. To this suspension of the membrane fraction was added 2 µl of 5 nM ^125I-labeled endothelin-1 solution. Further, 3 µl of a test peptide solution was added thereto, followed by incubation at a temperature of 25°C for 1 hour. Then, the resulting suspension was diluted with 900 µl of the buffer solution for assay cooled with ice, and thereafter separated into a supernatant and a precipitate by centrifugation at 12,000 X g for 10 minutes. Cell membranes and an endothelin receptor A (ETA) embedded therein were contained in the precipitate, and radioactive iodine-labeled endothelin combined with the receptor was also recovered in the precipitate. Accordingly, the amount of radioactive iodine-labeled endothelin combined with the endothelin receptor A (ETA) was determined by measuring the amount of radioactive iodine contained in the precipitate with a gamma-ray counter. The cyclic pentapeptide described in Japanese Patent Application No. 2-413328/1990, cyclo[-D-Glu-Ala-D-aIle-Leu-D-Trp-], was used as a control compound. The numerical value of ETA shown in Table 1 is the value of specific activity, taking the binding activity of this cyclic pentapeptide on the receptor A as 1.0. The binding activity (IC50) of this cyclic pentapeptide on the ETA receptor is 2x10^-6 M.

Row | SMILES | Binding Activity on ET Receptor (R. act.) ETB*2 (ETB) | Binding Activity on ET Receptor (R. act.) ETA [1]
1 | CC(C)C[C@@H]1NC(=O)[C@@H](CC(C)C)NC(=O)[C@H](CC(=O)O)NC(=O)[C@H](C(C)C)NC(=O)[C@@H](CC(=O)O)NC(=O)[C@@H](Cc2c[nH]c3ccccc23)NC1=O [Example 17, Cyclo[-D-Asp-Val-Asp-D-Leu-Leu-D-Trp-]] (cyclo(D[dL]L[dW][dD]V)) | 22 | 3.7
2 | CC(C)C[C@@H]1NC(=O)[C@@H](CC(C)C)NC(=O)[C@H](CC(=O)O)NC(=O)[C@H](CC(C)C)NC(=O)[C@@H](CC(=O)O)NC(=O)[C@@H](Cc2c[nH]c3ccccc23)NC1=O [Example 18, Cyclo[-D-Asp-Leu-Asp-D-Leu-Leu-D-Trp-]] (cyclo(D[dL]L[dW][dD]L)) | 2.2 | 13
3 | CC(C)C[C@@H]1NC(=O)[C@@H](CC(C)C)NC(=O)[C@H](CC(=O)O)NC(=O)[C@H](Cc2ccccc2)NC(=O)[C@@H](CC(=O)O)NC(=O)[C@@H](Cc2c[nH]c3ccccc23)NC1=O [Example 19, Cyclo[-D-Asp-Phe-Asp-D-Leu-Leu-D-Trp-]] (cyclo(D[dL]L[dW][dD]F)) | 7.1 | 8.3
4 | CC(C)C[C@@H]1NC(=O)[C@@H](CC(C)C)NC(=O)[C@H](CC(=O)O)NC(=O)[C@H](COCc2ccccc2)NC(=O)[C@@H](CC(=O)O)NC(=O)[C@@H](Cc2c[nH]c3ccccc23)NC1=O [Example 20, Cyclo[-D-Asp-Ser(Bzl)-Asp-D-Leu-Leu-D-Trp-]] (cyclo(D[dL]L[dW][dD]S(Bn))) | 13 | 14
5 | CC(C)C[C@@H]1NC(=O)[C@@H](CC(C)C)NC(=O)[C@H](C)NC(=O)[C@@H](CC(=O)O)NC(=O)[C@@H](CC(=O)O)NC(=O)[C@@H](Cc2c[nH]c3ccccc23)NC1=O [Example 27, Cyclo[-D-Asp-D-Asp-Ala-D-Leu-Leu-D-Trp-]] (cyclo(A[dL]L[dW][dD][dD])) | 4.8 | 5.7
6 | CC(C)C[C@@H]1NC(=O)[C@@H](CC(C)C)NC(=O)[C@H](C)NC(=O)[C@@H](CCC(=O)O)NC(=O)[C@@H](CC(=O)O)NC(=O)[C@@H](Cc2c[nH]c3ccccc23)NC1=O [Example 28, Cyclo[-D-Asp-D-Glu-Ala-D-Leu-Leu-D-Trp-]] (cyclo(A[dL]L[dW][dD][dE])) | 5.3 | 5.7
7 | CC(C)C[C@@H]1NC(=O)[C@@H](CC(C)C)NC(=O)[C@@H](C)NC(=O)[C@H](CC(=O)O)NC(=O)[C@@H](CC(=O)O)NC(=O)[C@@H](Cc2c[nH]c3ccccc23)NC1=O [Example 29, Cyclo[-D-Asp-Asp-D-Ala-D-Leu-Leu-D-Trp-]] (cyclo(D[dA][dL]L[dW][dD])) | 2.4 | 2.6
8 | CC(C)C[C@@H]1NC(=O)[C@@H](CC(C)C)NC(=O)[C@@H]2CCCN2C(=O)[C@H](CC(=O)O)NC(=O)[C@@H](CC(=O)O)NC(=O)[C@@H](Cc2c[nH]c3ccccc23)NC1=O [Example 30, Cyclo[-D-Asp-Asp-Pro-D-Leu-Leu-D-Trp-]] (cyclo(DP[dL]L[dW][dD])) | 9.1 | 4.4
9 | CC(C)C[C@@H]1NC(=O)[C@@H](CC(C)C)NC(=O)[C@H]2CCCN2C(=O)[C@H](CC(=O)O)NC(=O)[C@@H](CC(=O)O)NC(=O)[C@@H](Cc2c[nH]c3ccccc23)NC1=O [Example 31, Cyclo[-D-Asp-Asp-D-Pro-D-Leu-Leu-D-Trp-]] (cyclo(D[dP][dL]L[dW][dD])) | 1.0 | 2.6
10 | CC(C)C[C@@H]1NC(=O)[C@@H](CC(C)C)NC(=O)[C@H](CC(=O)O)NC(=O)[C@H](C)NC(=O)[C@@H](CCC(=O)O)NC(=O)[C@@H](Cc2c[nH]c3ccccc23)NC1=O [Example 41, Cyclo[-D-Glu-Ala-Asp-D-Leu-Leu-D-Trp-]] (cyclo(AD[dL]L[dW][dE])) | 26 | 2.1
11 | CC(C)C[C@@H]1NC(=O)[C@@H](CC(C)C)NC(=O)[C@H](CC(=O)O)NC(=O)CN(C)C(=O)[C@@H](CC(=O)O)NC(=O)[C@@H](Cc2c[nH]c3ccccc23)NC1=O [Example 46, Cyclo[-D-Asp-Sar-Asp-D-Leu-Leu-D-Trp-]] (cyclo(D[dL]L[dW][dD][Sar])) | 75 | 8.1
12 | CC(C)C[C@@H]1NC(=O)[C@@H](CC(C)C)NC(=O)[C@H](CC(=O)O)NC(=O)[C@H](CC(C)C)N(C)C(=O)[C@@H](CC(=O)O)NC(=O)[C@@H](Cc2c[nH]c3ccccc23)NC1=O [Example 47, Cyclo[-D-Asp-N-MeLeu-Asp-D-Leu-Leu-D-Trp-]] (cyclo(D[dL]L[dW][dD][NMeL])) | 17 | 6.8
13 | CC(C)C[C@@H]1NC(=O)[C@@H](CC(C)C)NC(=O)[C@H](CC(=O)O)NC(=O)[C@H](Cc2ccccc2)N(C)C(=O)[C@@H](CC(=O)O)NC(=O)[C@@H](Cc2c[nH]c3ccccc23)NC1=O [Example 48, Cyclo[-D-Asp-N-MePhe-Asp-D-Leu-Leu-D-Trp-]] (cyclo(D[dL]L[dW][dD][NMeF])) | 13 | 2.7
14 | CC(C)C[C@@H]1NC(=O)[C@@H](CC(C)C)NC(=O)[C@H](CC(=O)O)NC(=O)[C@H](Cc2c[nH]c3ccccc23)N(C)C(=O)[C@@H](CC(=O)O)NC(=O)[C@@H](Cc2c[nH]c3ccccc23)NC1=O [Example 67, Cyclo[-D-Asp-N-MeTrp-Asp-D-Leu-Leu-D-Trp-]] (cyclo(D[dL]L[dW][dD][NMeW])) | 30 | 9.1
15 | CC(C)C[C@@H]1NC(=O)[C@@H](CC(C)C)NC(=O)[C@H](CC(=O)O)NC(=O)[C@H](CCCNC(=O)Cc2ccccc2)NC(=O)[C@@H](CC(=O)O)NC(=O)[C@@H](Cc2c[nH]c3ccccc23)NC1=O [Example 80, cyclo[-D-Asp-Orn(COCH2Ph)-Asp-D-Leu-Leu-D-Trp-]] (cyclo(D[dL]L[dW][dD][Orn](PhAc))) | 380 | 260
16 | CC(C)C[C@@H]1NC(=O)[C@@H](CC(C)C)NC(=O)[C@H](CC(=O)O)NC(=O)[C@H](CCCNC(=O)Cc2c[nH]c3ccccc23)NC(=O)[C@@H](CC(=O)O)NC(=O)[C@@H](Cc2c[nH]c3ccccc23)NC1=O [Example 82, cyclo[-D-Asp-Orn(COCH2-Ind)-Asp-D-Leu-Leu-D-Trp-]] (cyclo(D[dL]L[dW][dD][Orn](X3))) | 500 | 240
17 | CC(C)C[C@@H]1NC(=O)[C@@H](CC(C)C)NC(=O)[C@H](CC(=O)O)NC(=O)[C@H](Cc2c[nH]cn2)NC(=O)[C@@H](CC(=O)O)NC(=O)[C@@H](Cc2c[nH]c3ccccc23)NC1=O [Example 83, Cyclo[-D-Asp-His-Asp-D-Leu-Leu-D-Trp-]] (cyclo(D[dL]L[dW][dD]H)) | 43 | 15
